Laboratory results: article PMC3834327, “N ^6-Substituted AMPs Inhibit Mammalian Deoxynucleotide N-Hydrolase DNPH1” (PLoS ONE, 2013)
Each block holds one compound with its values, some of them ahead of it.

Tests used:
[1] = molecular target: T1, rat DNPH1 (Rattus norvegicus, UniProt O35820); assay: Isothermal titration calorimetry with rat DNPH1; conditions: for -T∆S / ∆G / ∆H / ∆S: ITC, T = 298 K, pH 6.0, rat DNPH1
T1 sequence (O35820 1-163): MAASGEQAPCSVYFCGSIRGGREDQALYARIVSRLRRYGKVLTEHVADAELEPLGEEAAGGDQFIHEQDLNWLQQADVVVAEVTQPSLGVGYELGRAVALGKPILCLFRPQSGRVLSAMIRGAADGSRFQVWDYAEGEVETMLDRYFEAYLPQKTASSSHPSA

[2] = molecular target: T2, human DNPH1 (Homo sapiens, UniProt O43598); assay: Isothermal titration calorimetry with human DNPH1; conditions: for -T∆S / ∆G / ∆H / ∆S: ITC, T = 298 K, pH 6.0, human DNPH1
T2 sequence (O43598 1-174): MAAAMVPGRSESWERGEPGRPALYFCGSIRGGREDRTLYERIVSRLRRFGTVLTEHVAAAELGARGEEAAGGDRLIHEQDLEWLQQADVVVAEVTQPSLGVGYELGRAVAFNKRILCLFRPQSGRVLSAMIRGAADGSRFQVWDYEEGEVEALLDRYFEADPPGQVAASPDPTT

[3] = molecular target: T1, rat DNPH1; assay: Kinetic measurements: inhibition of rat DNPH1 activity (dGMP substrate, spectrophotometric)
[4] = molecular target: T2, human DNPH1; assay: Kinetic measurements: inhibition of human DNPH1 activity (dGMP substrate, guanine by RR-HPLC)
[5] = molecular target: T1, rat DNPH1; set-up: made in house; host or cells: E. coli Bli5; method as in PMID 20962348; conditions: cited from earlier work
[6] = molecular target: T2, human DNPH1; assay: Kinetic parameters of human DNPH1 with 2'-deoxynucleoside 5'-monophosphates as substrates; type: biochemical; set-up: made in house; host or cells: E. coli Bli5; conditions: substrate of human DNPH1; for Km: double reciprocal plots, five concentrations

Compound: CC(C)=CCNc1ncnc2c1ncn2[C@@H]1O[C@H](COP(=O)(O)O)[C@@H](O)[C@H]1O [Compound 1, N ^6-Isopentenyl adenosine 5’-monophosphate]
Kd [1]: 2600 ± 100 nM | -T∆S [1]: 8.3 kcal/mol | ∆G [1]: -7.6 kcal/mol | ∆H [1]: -15.9 ± 0.1 kcal/mol | ∆S [1]: -27.9 cal.K^1.mol^-1 | Kd [2]: 2100 ± 200 nM | -T∆S [2]: 2.4 kcal/mol | ∆G [2]: -7.8 kcal/mol | ∆H [2]: -10.2 ± 0.1 kcal/mol | ∆S [2]: -8.2 cal.K^-1.mol^-1 | Ki [3]: 3300 nM | Ki [4]: 2000 nM

Compound: C/C(=C\CNc1ncnc2c1ncn2[C@@H]1O[C@H](COP(=O)(O)O)[C@@H](O)[C@H]1O)CO [Compound 2, trans-zeatin riboside 5’-monophosphate]
Ki [3]: 15500 ± 1000 nM | decrease in activity compared to 1 ([3]; hydroxyl group on the C4 chain): up to 5 fold | Ki [4]: 8000 ± 1400 nM

Compound: C/C(=C/CNc1ncnc2c1ncn2[C@@H]1O[C@H](COP(=O)(O)O)[C@@H](O)[C@H]1O)CO [Compound 3, cis-zeatin riboside 5’-monophosphate]
Ki [3]: 6100 ± 1200 nM | Ki [4]: 5600 ± 800 nM

Compound: CC(CO)CCNc1ncnc2c1ncn2[C@@H]1O[C@H](COP(=O)(O)O)[C@@H](O)[C@H]1O (stereo partly shown) [Compound 4, dihydrozeatin riboside 5’-monophosphate]
Ki [3]: 7600 ± 1500 nM | Ki [4]: 3900 ± 1000 nM

Compound: O=P(O)(O)OC[C@H]1O[C@@H](n2cnc3c(NCc4ccco4)ncnc32)[C@H](O)[C@@H]1O [Compound 5, kinetin riboside 5’-monophosphate]
Kd [1]: 800 ± 100 nM | -T∆S [1]: 17.4 kcal/mol | ∆G [1]: -8.3 kcal/mol | ∆H [1]: -25.7 ± 0.1 kcal/mol | ∆S [1]: -58.3 cal.K^1.mol^-1 | Kd [2]: 1400 ± 100 nM | -T∆S [2]: 12.6 kcal/mol | ∆G [2]: -7.5 kcal/mol | ∆H [2]: -20.1 ± 0.1 kcal/mol | ∆S [2]: -42.4 cal.K^-1.mol^-1 | Ki [3]: 1800 ± 700 nM | Ki [4]: 2200 ± 200 nM

Compound: O=P(O)(O)OC[C@H]1O[C@@H](n2cnc3c(NC4CCCCC4)ncnc32)[C@H](O)[C@@H]1O [Compound 8, N ^6-Cyclohexyladenosine 5'-monophosphate]
Kd [1]: 500 ± 100 nM | -T∆S [1]: 11.2 kcal/mol | ∆G [1]: -8.7 kcal/mol | ∆H [1]: -19.9 ± 0.1 kcal/mol | ∆S [1]: -37.6 cal.K^1.mol^-1 | Ki [3]: 1200 ± 100 nM | Ki [4]: 1600 ± 300 nM

Compound: O=P(O)(O)OC[C@H]1O[C@@H](n2cnc3c(NCCc4ccccc4)ncnc32)[C@H](O)[C@@H]1O [Compound 12, N ^6-Phenylethyladenosine 5'-monophosphate]
Ki [3]: 2900 ± 300 nM | Ki [4]: 7800 ± 1000 nM

Compound: O=C(O)CCNc1ncnc2c1ncn2[C@@H]1O[C@H](COP(=O)(O)O)[C@@H](O)[C@H]1O [Compound 13, N ^6-(2-carboxyethyl)adenosine 5'-monophosphate]
Ki [3]: 6200 ± 700 nM | Ki [4]: 5600 ± 500 nM

Compound: O=C(O)CCCNc1ncnc2c1ncn2[C@@H]1O[C@H](COP(=O)(O)O)[C@@H](O)[C@H]1O [Compound 14, N ^6-(3-carboxypropyl)adenosine 5'-monophosphate]
Kd [1]: 9400 ± 100 nM | -T∆S [1]: 5.5 kcal/mol | ∆G [1]: -6.9 kcal/mol | ∆H [1]: -12.4 ± 0.1 kcal/mol | ∆S [1]: -18.5 cal.K^1.mol^-1 | Kd [2]: 5500 ± 100 nM | -T∆S [2]: 2.6 kcal/mol | ∆G [2]: -7.2 kcal/mol | ∆H [2]: -9.8 ± 0.1 kcal/mol | ∆S [2]: -8.8 cal.K^-1.mol^-1 | Ki [3]: 11200 nM | Ki [4]: 2100 ± 200 nM

Compound: Nc1nc2c(ncn2[C@@H]2O[C@H](COP(=O)(O)O)[C@@H](O)[C@H]2O)c(=O)[nH]1 [GMP]
free energy [5]: -6.8 kcal/mol

Compound: Cc1cn([C@H]2C[C@H](O)[C@@H](COP(=O)(O)O)O2)c(=O)[nH]c1=O [dTMP]
kcat [6]: 25 ± 2 10^-3 s^-1 | Km [6]: 23000 ± 3050 µM

Further lines, results first:

Kd [1]: 600 ± 100 nM | -T∆S [1]: 2.3 kcal/mol | ∆G [1]: -8.5 kcal/mol | ∆H [1]: -10.7 ± 0.1 kcal/mol | ∆S [1]: -7.5 cal.K^1.mol^-1 | Kd [2]: 1400 ± 400 nM | -T∆S [2]: -1.8 kcal/mol | ∆G [2]: -8.0 kcal/mol | ∆H [2]: -6.1 ± 0.1 kcal/mol | ∆S [2]: 6.2 cal.K^-1.mol^-1 | Ki [3]: 1200 ± 100 nM | Ki [4]: 2600 ± 300 nM
Compound: O=P(O)(O)OC[C@H]1O[C@@H](n2cnc3c(NC4CCCC4)ncnc32)[C@H](O)[C@@H]1O [Compound 7, N ^6-cyclopentyladenosine 5’-monophosphate]

Ki [3]: 1300 ± 100 nM | Ki [4]: 1500 ± 100 nM
Compound: O=P(O)(O)OC[C@H]1O[C@@H](n2cnc3c(NC4CCC4)ncnc32)[C@H](O)[C@@H]1O [Compound 9, N ^6-Cyclobutyladenosine 5'-monophosphate]

Ki [3]: 2000 ± 600 nM | Ki [4]: 2800 ± 600 nM
Compound: O=P(O)(O)OC[C@H]1O[C@@H](n2cnc3c(NC4CC4)ncnc32)[C@H](O)[C@@H]1O [Compound 10, N ^6-Cyclopropyladenosine 5'-monophosphate]

kcat [6]: 2.5 ± 0.8 10^-3 s^-1 | Km [6]: 97 ± 14 µM
Compound: Nc1ncnc2c1ncn2[C@H]1C[C@H](O)[C@@H](COP(=O)(O)O)O1 [dAMP]

kcat [6]: 8.3 ± 0.4 10^-3 s^-1 | Km [6]: 2500 ± 207 µM
Compound: Nc1ccn([C@H]2C[C@H](O)[C@@H](COP(=O)(O)O)O2)c(=O)n1 [dCMP]

kcat [6]: 0.002 s⁻¹
Compound: Nc1nc2c(ncn2[C@H]2C[C@H](O)[C@@H](COP(=O)(O)O)O2)c(=O)[nH]1 [dGMP, 2’-Deoxyguanosine 5’-monophosphate]

kcat [6]: 1.6 ± 0.1 10^-3 s^-1 | Km [6]: 104 ± 19 µM
Compound: O=c1[nH]cnc2c1ncn2[C@H]1C[C@H](O)[C@@H](COP(=O)(O)O)O1 [dIMP]

kcat [6]: 200 ± 20 10^-3 s^-1 | Km [6]: 7800 ± 1760 µM
Compound: O=c1ccn([C@H]2C[C@H](O)[C@@H](COP(=O)(O)O)O2)c(=O)[nH]1 [dUMP]
